This is an account of results in patent US6486128B1, “Method of using emamectin to treat fish parasites” (Schering-Plough Veterinary Corporation, priority 1999, dated 2002).

The nature of data set [1]: Daily observation of fish for behavior, adverse drug reactions and mortalities (three studies). It is filed as in vivo, Atlantic salmon, Salmo salar L. To be noted: at the dosage levels and dosage schedule of the invention. The procedure:
Fish were held in replicate groups in plastic fiber tanks, each with a volume of 0.54 m^3. Each tank was supplied with natural sea water at ambient temperature (7-14° C.) and salinity (30-35 ppt), at flow rates of approximately 18 l. min^−1. The tanks were fitted with mesh screens over the water outlet to retain uneaten fish pellets. Fish were observed daily for behavior and adverse drug reactions. Fish mortalities and the occurrence of gross sea lice damage were also recorded.

A further data set concerns parasites. Put plainly: Sustained efficacy after emamectin treatment. It is filed as in vivo.
For data set [2] the following is noted: orally administered; cited from earlier work.
In another data set the test system is sea lice. The note with it: commonly adopted dose rate of 25 μg kg^−1 biomass twice weekly; cited from earlier work.

Regarding “4″-deoxy-4″ epimethylaminoavermectin B1 [emamectin]”, in data set [1], the “toxicity to fish populations” value is listed as “not toxic”. The “sustained efficacy after treatment” value in the data set with parasites lay in the range of 8 to 10 weeks.

For 22,23-dihydroavermectin B1 [ivermectin], the “levels found to be toxic” value in data set [2] is on record as “greater than 25 μg kg^−1 biomass twice weekly”. In addition, the “control of sea lice” value in the data set on sea lice is reported as “some control”.
